Marks after values point to notes of the source that are not given here.

The subject of data set [1] is rat model of hyperuricemia. The experiment in a line: Reducing uric acid in the rat model of hyperuricemia (Oteracil potassium), 30 d intragastric administration. Particulars: for UA Reduction: day 30, calculated in comparison with Model control group. It counts as in vivo, SD Rat. The text has this: Examine the effect of the Chinese herbal composition of the present invention for reducing uric acid in the rat model of hyperuricemia. Animals were assigned randomly into: Blank control group, Sample control group, Model control group, Test group, and Positive control group. Each group consisted of 10 animals. […] They were randomly assigned into 5 groups, each group consisting of 10 animals, the body weight distribution of each group of rats is similar. […] Blank control group was administrated with 17 ml/kg of distilled water intragastrically every afternoon, Sample control group was administrated with 17 ml/kg of test sample intragastrically every afternoon, Model control group was administrated with distilled water intragastrically in the afternoon, Positive control group was administrated with allopurinol intragastrically in the afternoon, and Test group was administrated with 17 ml/kg of test sample intragastrically in the afternoon. Additionally, for Model control group, Positive control group and Test group, each group was administrated with Oteracil potassium intragastrically every morning. The administration was conducted daily for 30 days. Prior to experiments, the rats were fastened for 12 h (but water was provided) and then about 1 ml of blood were taken from orbital veniplex with glass capillary tube. Sera were separated for measuring the pre-testing level of uric acid. On day 30, blood were taken in the same manner and sera were separated for measuring the serum levels of uric acid, creatinine, and urea nitrogen. Modeling principle: Rats were intragastrically administrated with Oteracil potassium, a chemical inhibitor of uricase, to inhibit the activity of uricase in the body of rats, rendering uric acid in the body of rats unable to breakdown, causing the accumulation of uric acid produced in the serum, so as to produce a rat model of hyperuricemia. Model control group: 17 ml/kg*d of distilled water was administrated intragastrically, once daily for 30 days; Test sample prevention group: 17 ml/kg*d of test sample was administrated intragastrically, once daily for 30 days; Positive control group: 17 ml/kg*d of positive control allopurinolis administrated intragastrically, once daily for 30 days. Observation of Body weight: The growing condition of animals were observed by weighing prior to administration and on Day 30 of administration. Blood were taken prior to administration and on Day 30 of administration to measure uric acid, creatinine, urea nitrogen, to calculate the changing rate of uric acid level in serum. The changing rate of uric acid in serum=(uric acid value in serum after experiment-uric acid value in serum prior to experiment)/uric acid value in serum prior to […]100% ANOVA (analysis of variance) was used. Firstly, homogeneous variance test was carried out, and F values were calculated.

The test system of data set [2] is rat model of hyperuricemia. Described as above. It counts as in vivo, SD Rat. The following applies: hyperuricemia model rats, X ± S.
The mark [3] stands for this setting: hyperuricemia model rats, intragastric once daily, day 30, X ± S.

In turn, `Oc1ncnc2[nH]ncc12` [allopurinol] gave a 30 d weight in data set [1] (hyperuricemia model rats, body weight after 30 days, X ± S) of 254.4 ± 23.1 g. The “UA Reduction” value in data set [1] (hyperuricemia model rats) is 53.4%; in data set [1] (hyperuricemia model rats, listed as Positive control), “↓53.4%”. For the same molecule, the BUN level in the sera of rats upon 30 d administration in data set [1] (setting [3]) turned out to be 5.53 ± 0.79 mM. Moreover, in data set [1] (setting [3]), the “UA level in the sera of rats upon 30 d administration” value is listed as 63.20 ± 17.19** μmol/L. The “Blood/serum UA level change in words” value in data set [1] (in comparison with Model control group, 30 d oral administration) is “significant reduction”. For the same molecule, the “General status observation (appearance, activities, excrement characters)” value in data set [1] (in comparison with Model control group, observed daily) is given as “no significant difference”. In addition, in data set [2] (body weight after 10 days), the 10 d weight is 185.7 ± 15.9 g. This molecule also yielded a 20 d weight in data set [2] (body weight after 20 days) of 224.2 ± 21.8 g.

The values above are taken from patent publication US11925669B2, “Chinese herbal medicine composition having a function of reducing uric acid” (Infinitus (China) Company Ltd., priority 2013, dated 2024).
